Ends that are not written are not given here.
Tests used:
[1] = system: ADP-treated human platelets; assay: Aggregation of ADP-treated human platelets washed free of fibrinogen, by conjugates (percent transmission); type: cell-based; details: FIG. 6 curves b and c
Text: FIG. 5 illustrates the effectiveness of the divalent conjugate on promoting this inhibition reaction. Human platelets were washed free of fibrinogen and other binding proteins and then treated with ADP. […] The lower curve on FIG. 5 is a control of the identical conjugate with a peptide bound to the human serum albumin that is […] to the receptor site.
This Example illustrates that a polyvalent conjugate can also be manufactured and used in an aggregation reaction. […] Multiple copies of a different peptide, residues 397-411 of the gamma chain of fibrinogen bound to a cysteine residue were conjugated to a human serum albumin backbone. Curve a on FIG. 6 illustrates the aggregation of ADP-treated human platelets by this polyvalent conjugate. […] Curves b and c on FIG. 6 are controls illustrating the effectiveness of the conjugate as an artificial fibrinogen. In Curve b, the "model molecule" was first mixed with Fab fragments of rabbit antibody which had been made against the terminal portion of the gamma chain of human fibrinogen. […] This is evident from the almost flat response shown as Curve b on FIG. 6.
The alternate control, inhibiting the artificial fibrinogen reaction using the peptides themselves, is shown in Curve c. In this reaction, the platelets were mixed with unconjugated peptides and then the conjugate was used in attempt to aggregate the platelets.

[2] = system: ADP-modified human platelet receptor site for fibrinogen; assay: Inhibition of 125I-fibrinogen binding to ADP-treated human platelets; details: 10^8 human platelets/0.55 ml treated with 5 mM of ADP, FIG. 8
Experimental: FIG. 3 is a graph showing that the inhibitory effect of the same conjugate is concentration dependent. In this experiment, human platelets were treated with ADP and a variety of concentrations of the conjugate were added to affect inhibition of ^125 I-fibrinogen binding to the platelets. As the concentration of the conjugate increases, inhibition of binding goes from 0 to almost 100%, showing the effectiveness of the conjugate.

[3] = target: T1, ADP-modified human platelets (von Willebrand factor binding site) (Homo sapiens, UniProt P05106+P08514); assay: Inhibition of 125I-labelled von Willebrand factor binding to ADP-treated human platelets; details: 10^8 human platelets/0.55 ml treated with 5 mM of ADP, 14 μg 125I-von Willebrand factor, FIG. 8
T1 construct: 10^8 human platelets/0.55 ml treated with 5 mM of ADP; endogenous in cells; host or cells: human platelets treated with ADP
T1 sequence (P08514 32-887 limits assumed): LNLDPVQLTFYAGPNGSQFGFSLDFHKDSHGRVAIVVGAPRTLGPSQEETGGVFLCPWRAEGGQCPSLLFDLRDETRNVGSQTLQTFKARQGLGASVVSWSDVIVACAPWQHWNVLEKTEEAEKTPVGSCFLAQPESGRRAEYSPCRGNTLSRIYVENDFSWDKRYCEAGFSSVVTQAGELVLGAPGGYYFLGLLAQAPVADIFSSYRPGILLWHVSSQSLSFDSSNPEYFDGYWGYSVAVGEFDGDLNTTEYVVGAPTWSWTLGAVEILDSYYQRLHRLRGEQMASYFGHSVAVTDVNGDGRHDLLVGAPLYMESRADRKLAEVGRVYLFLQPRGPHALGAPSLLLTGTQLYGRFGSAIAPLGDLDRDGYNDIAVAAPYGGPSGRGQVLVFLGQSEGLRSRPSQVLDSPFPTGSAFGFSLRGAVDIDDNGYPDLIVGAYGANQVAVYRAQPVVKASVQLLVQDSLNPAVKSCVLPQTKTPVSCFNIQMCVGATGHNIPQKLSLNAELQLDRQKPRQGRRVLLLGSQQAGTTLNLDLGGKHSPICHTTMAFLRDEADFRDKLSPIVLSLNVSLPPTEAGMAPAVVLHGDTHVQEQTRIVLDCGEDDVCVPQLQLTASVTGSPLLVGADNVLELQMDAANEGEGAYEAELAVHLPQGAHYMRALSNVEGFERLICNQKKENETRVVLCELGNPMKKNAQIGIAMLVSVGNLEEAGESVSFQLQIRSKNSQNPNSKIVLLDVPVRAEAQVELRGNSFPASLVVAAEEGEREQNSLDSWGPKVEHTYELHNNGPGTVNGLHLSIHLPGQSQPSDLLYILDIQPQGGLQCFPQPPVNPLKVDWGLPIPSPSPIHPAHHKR
T1 sequence (P08514 891-1039 partner limits assumed): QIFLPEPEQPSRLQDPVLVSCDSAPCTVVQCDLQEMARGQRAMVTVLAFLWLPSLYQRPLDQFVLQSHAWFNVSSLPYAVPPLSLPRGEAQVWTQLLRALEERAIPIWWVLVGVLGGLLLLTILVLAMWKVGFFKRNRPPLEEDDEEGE
T1 sequence (P05106 27-788): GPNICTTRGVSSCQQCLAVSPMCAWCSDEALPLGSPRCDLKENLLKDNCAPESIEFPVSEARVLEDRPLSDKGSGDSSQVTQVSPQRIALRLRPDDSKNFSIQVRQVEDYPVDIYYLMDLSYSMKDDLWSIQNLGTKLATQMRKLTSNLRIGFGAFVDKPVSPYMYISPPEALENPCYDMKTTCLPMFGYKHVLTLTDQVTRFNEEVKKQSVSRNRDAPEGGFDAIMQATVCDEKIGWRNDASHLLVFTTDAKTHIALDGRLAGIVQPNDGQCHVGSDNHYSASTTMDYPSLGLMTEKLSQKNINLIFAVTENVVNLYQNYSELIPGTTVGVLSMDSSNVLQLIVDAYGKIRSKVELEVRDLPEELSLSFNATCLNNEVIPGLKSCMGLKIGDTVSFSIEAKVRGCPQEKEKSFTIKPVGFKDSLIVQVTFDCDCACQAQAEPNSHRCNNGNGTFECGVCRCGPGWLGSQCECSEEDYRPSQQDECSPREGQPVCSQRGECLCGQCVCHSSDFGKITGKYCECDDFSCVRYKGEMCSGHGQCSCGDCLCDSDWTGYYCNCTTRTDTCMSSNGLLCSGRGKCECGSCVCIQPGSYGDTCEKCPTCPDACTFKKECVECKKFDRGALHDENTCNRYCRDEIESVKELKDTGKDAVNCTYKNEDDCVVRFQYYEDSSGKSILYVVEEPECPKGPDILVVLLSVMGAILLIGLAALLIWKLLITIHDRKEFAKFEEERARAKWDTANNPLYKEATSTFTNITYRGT
Experimental: This Example illustrates that a peptide can be used to inhibit binding of von Willebrand factor to ADP-treated human platelets. FIG. 8 illustrates the level of inhibition of ^125 I-labelled von Willebrand factor or fibrinogen binding to ADP-modified human platelets by incubation with a synthetic dodecapeptide

[4] = target: T2, ristocetin-modified human platelets (von Willebrand factor binding site) (Homo sapiens, UniProt P07359); assay: Inhibition of 125I-labelled von Willebrand factor binding to ristocetin-treated human platelets; details: human platelets treated with 0.6 mg/ml ristocetin, FIG. 8
T2 construct: von Willebrand factor to human platelets treated with 0.6 mg/ml ristocetin; endogenous in cells; host or cells: human platelets treated with ristocetin
T2 sequence (P07359 17-652): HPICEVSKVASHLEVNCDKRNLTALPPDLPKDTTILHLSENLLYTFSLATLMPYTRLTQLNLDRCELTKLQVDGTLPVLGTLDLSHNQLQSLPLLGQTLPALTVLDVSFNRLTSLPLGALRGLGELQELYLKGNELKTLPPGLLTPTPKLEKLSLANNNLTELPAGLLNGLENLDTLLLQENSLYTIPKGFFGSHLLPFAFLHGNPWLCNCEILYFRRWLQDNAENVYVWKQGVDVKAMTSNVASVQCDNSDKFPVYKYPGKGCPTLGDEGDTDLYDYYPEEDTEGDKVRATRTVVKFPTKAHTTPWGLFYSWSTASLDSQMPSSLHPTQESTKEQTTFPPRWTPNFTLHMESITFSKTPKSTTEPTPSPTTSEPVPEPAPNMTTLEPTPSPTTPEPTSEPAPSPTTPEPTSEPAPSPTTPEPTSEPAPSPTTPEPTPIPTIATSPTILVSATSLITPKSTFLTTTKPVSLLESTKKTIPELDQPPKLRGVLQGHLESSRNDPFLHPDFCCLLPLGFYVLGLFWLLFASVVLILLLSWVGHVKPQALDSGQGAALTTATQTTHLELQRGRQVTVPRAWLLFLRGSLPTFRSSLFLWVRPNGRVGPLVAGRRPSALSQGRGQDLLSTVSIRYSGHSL
T2 sequence (P13224 26-206 partner): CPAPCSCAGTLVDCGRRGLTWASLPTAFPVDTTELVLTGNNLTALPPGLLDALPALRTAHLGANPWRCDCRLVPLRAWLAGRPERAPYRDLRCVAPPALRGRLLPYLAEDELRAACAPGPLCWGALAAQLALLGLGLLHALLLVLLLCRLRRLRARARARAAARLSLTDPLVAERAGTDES
T2 sequence (P14770 17-177 partner): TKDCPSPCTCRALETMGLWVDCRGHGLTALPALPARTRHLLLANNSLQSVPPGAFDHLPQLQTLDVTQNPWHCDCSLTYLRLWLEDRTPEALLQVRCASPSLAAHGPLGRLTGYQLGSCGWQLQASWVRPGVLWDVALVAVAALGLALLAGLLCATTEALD
T2 sequence (P40197 17-560 partner): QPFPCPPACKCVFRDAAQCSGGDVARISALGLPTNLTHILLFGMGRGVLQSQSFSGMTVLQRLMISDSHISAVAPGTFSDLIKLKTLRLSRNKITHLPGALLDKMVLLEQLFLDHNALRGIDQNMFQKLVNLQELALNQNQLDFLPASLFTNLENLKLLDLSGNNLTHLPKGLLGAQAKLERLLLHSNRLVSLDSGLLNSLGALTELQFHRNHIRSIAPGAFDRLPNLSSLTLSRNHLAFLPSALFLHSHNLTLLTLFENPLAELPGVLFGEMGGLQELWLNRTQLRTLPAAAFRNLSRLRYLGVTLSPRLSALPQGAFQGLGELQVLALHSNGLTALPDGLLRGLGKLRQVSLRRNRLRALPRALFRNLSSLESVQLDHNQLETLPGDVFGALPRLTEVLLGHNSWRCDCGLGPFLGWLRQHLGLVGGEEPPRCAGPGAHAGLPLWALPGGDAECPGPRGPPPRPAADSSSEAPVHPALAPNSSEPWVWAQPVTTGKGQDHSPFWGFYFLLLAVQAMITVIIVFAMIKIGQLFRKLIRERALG

[5] = system: hemostatic plug formation; assay: In vivo rabbit superior mesenteric artery perfusion, bleeding time; details: FIG. 11
Experimental: This Example illustrates an in vivo model of mesentric artery perfusion in a rabbit. The experimental model employed involved anesthesized white New Zealand rabbits, weighing about 2.0 kg, and fed standard diet. The right femoral artery was canulated for blood pressure measurement and blood sampling. A midline abdominal incision was made to exteriorize the small intestine, the mesentery was draped over a microscope table, and superfused continuously with saline at 37° C. […] Small arteries of 100-200 μm external diameter were cut one third across with a surgical blade at the junction of the mesentery with the intestine. The time in seconds was determined from incision until the bleeding was arrested by a spontaneously formed hemostatic plug. Infusions of selected agents tested for their effects on platelet activation were through the mesenteric cannula with a constant volume Harvard pump at a flow rate of 0.11 ml/min. Three animals were used for each dose unless otherwise indicated. Blood pressure, hematocrit, and platelet count were measured prior to and after bleeding time determinations.

## unconjugated peptides: the peptides of the polyvalent conjugate themselves, unconjugated (gamma chain residues 397-411 with cysteine)
[1]
  inhibition of platelet aggregation induced by the polyvalent conjugate (artificial fibrinogen): aggregation reaction by the artificial fibrinogen conjugate is inhibited

## HHLGGAKQAGDV [dodecapeptide, H2 N-His-His-Leu-Gly-Gly-Ala-Lys-Gln-Ala-Gly-Asp-Val-C OOH]
[2]
  inhibition of 125I-labelled fibrinogen binding: substantial binding inhibition
[3]
  inhibition of 125I-labelled von Willebrand factor binding: substantial binding inhibition
[4]
  inhibition of 125I-labelled von Willebrand factor binding: does not inhibit

## HHLGGAKQAGDV [inhibitory peptide]
[5]; infusion through the mesenteric cannula
  bleeding time relative to its original time (diluent infusion): more than double its original time
[5]; said to show clearance of the peptide
  time to resume original bleeding time after peptide infusion is replaced by diluent: approximately 20 minutes

Source: patent publication US4703039A, “Method of producing biologically active molecules having extended life time” (New England Deaconess Hospital Corporation, priority 1985, dated 1987)
